The text below walks through data of paper PMC10420662, “Novel 7-Deazapurine Incorporating Isatin Hybrid Compounds as Protein Kinase Inhibitors: Design, Synthesis, In Silico Studies, and Antiproliferative Evaluation” (Molecules, 2023).

As a reminder, the IC50 is the concentration that gives 50% inhibition. A high value points to lower potency.

The target in one test is EGFR (Homo sapiens, UniProt P00533). In words: Kinase inhibition assay (ELISA kit). (In an ELISA, binding on a coated surface is turned into a signal by an enzyme label.)
EGFR, sequence (P00533 25-1210): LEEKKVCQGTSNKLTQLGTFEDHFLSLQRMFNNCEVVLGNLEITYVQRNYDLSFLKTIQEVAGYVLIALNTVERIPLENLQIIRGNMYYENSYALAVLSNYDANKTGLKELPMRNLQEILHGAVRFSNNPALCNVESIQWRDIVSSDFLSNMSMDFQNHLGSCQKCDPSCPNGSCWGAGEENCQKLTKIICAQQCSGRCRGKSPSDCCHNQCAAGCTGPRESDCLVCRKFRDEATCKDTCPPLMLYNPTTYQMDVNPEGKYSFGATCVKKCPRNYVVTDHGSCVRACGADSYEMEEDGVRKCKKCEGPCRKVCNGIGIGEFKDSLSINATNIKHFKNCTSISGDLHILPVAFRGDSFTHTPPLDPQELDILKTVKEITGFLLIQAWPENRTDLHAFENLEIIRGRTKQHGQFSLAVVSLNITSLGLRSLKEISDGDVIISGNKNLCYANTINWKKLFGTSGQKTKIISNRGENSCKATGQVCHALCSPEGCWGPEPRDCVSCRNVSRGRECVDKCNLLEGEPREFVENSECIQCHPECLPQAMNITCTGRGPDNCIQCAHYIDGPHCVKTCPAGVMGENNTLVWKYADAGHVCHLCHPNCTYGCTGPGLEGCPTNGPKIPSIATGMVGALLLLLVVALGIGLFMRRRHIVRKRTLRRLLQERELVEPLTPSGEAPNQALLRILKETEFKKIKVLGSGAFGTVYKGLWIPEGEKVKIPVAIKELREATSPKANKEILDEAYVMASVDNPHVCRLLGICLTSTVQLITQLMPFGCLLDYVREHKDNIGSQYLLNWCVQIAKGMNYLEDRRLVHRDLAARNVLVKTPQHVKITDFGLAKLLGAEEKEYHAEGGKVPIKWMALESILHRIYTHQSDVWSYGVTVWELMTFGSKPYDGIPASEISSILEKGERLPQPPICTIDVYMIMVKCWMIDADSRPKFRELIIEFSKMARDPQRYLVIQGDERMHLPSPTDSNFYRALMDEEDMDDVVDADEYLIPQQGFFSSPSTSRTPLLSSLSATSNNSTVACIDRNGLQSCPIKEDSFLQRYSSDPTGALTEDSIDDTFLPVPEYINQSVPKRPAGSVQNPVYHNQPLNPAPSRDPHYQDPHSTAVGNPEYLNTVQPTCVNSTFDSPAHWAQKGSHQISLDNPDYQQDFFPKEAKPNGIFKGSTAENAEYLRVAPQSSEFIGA
A further test addresses HER2 (Homo sapiens, UniProt P04626). In words: Kinase inhibition assay (ELISA kit).
Test [1] relates to HepG2 cells. In words: Apoptosis analysis (Annexin V-FITC/PI flow cytometry). It counts as cell-based, human. On the procedure: Annexin V and propidium iodide (PI) reagent were used to detect the cell death in apoptosis by binding to phosphatidyl serine and DNA in plasma membrane, respectively. The cell death was examined by staining HepG2 cells with Annexin V and PI, and cellular fluorescence analysis was then performed using flow cytometry (Table 5). According to the results, compound 5 induced apoptosis by 160-fold in the late stage and by 20-fold in the early stage. […] As shown in the dot plot results, compound 5 caused exerted noticeable cell damage compared to untreated cells (Figure 4). Collectively, the results of cell cycle and apoptosis analysis confirmed the cytotoxicity effects of compound 5.
Effect of compound 5 on cell programmed cell death was analyzed using Annexin V-FITC cell apoptosis detection kit (K101-100) (BioVision Techology, Inc., Exon, PA, USA) by following the method described in [17, 30]. Briefly, in 6-well plates, HepG2 cells at a density of 2 × 10^5 were cultured and incubated for 24 h. The cultured cells were then treated with compound 5 for 24 h. Afterwards, the cells were trypsinized and gathered via centrifugation (5 min, 300× g), washed twice with PBS, and suspended in 0.1 mL of a 1X binding buffer. Then, the cells were double-stained with 5 µL Annexin V-FITC and 5 µL PI in the dark at room temperature for 15 min before they were examined using an Epics XL-MCL™ Flow Cytometer (Beckman Coulter, Apeldoorn, The Netherlands). The excitation wavelength was 488 nm while the emission wavelength was 530 nm. Finally, the data were analyzed using Flowing software (version 2.5.1, Turku Centre for Biotechnology, Turku, Finland).
On the technique in general: In flow cytometry, cells or beads pass a laser one at a time.

For the next test, the system named is MDA-MB-231. The experiment in a line: In vitro cytotoxicity MTT assay. Conditions: Homo sapiens, 24 h treatment, mean ± SD of three experiments. The class given is cell-based. On the procedure:
(§1) Briefly, the cytotoxicity of the synthesized derivatives and the reference compounds was assessed via the MTT assay on four cancer cell lines. The cells were cultured in an RPMI11640 medium with 10% fetal bovine serum (FBS) and an antibiotic cocktail of […] streptomycin and 100 units/mL penicillin. Cancer cell lines were seeded independently in 96-well plates at a concentration of 1.0 × 10^4 cells/well at 37 °C, 5% CO2, and 100% relative humidity for 48 h. Afterwards, the incubated cells were treated with five concentrations of the synthesized derivatives for 24 h. Then, 20 µL MTT (5 mg/mL) was added and left for 4 h before adding 100 µL dimethyl sulfoxide (DMSO) to each well to solubilize the formed formazan.

Another test relates to HeLa. In words: In vitro cytotoxicity MTT assay. Conditions: Homo sapiens, 24 h treatment, mean ± SD of three experiments. It counts as cell-based. On the procedure:
as §1

The subject of a further test is MCF-7. The experiment in a line: In vitro cytotoxicity MTT assay. The class given is cell-based. Conditions: Homo sapiens, MCF7, 24 h treatment, mean ± SD of three experiments. On the procedure:
as §1

The test system of the next test is HepG2. In words: In vitro cytotoxicity MTT assay. It counts as cell-based. Conditions: Homo sapiens, 24 h treatment, mean ± SD of three experiments. The method, then:
as §1
A general note: Formazan colour is commonly taken as a measure of viable cells.

For test [2], the system named is HepG2 cells. The experiment in a line: Cell cycle analysis (propidium iodide flow cytometry). It counts as cell-based, human. The conditions noted are these: 6.11 μM, 24 h. On the procedure: Cell cycle analysis can determine at which phase in the cell cycle apoptosis occurs. The cell cycle is four phases consisting of G1 (growth), S (DNA synthesis), G2 (growth and preparation for mitosis), and M (mitosis). Normal cell growth and proliferation are controlled by various checkpoints at these phases. Thus, HepG2 cells were treated with 6.11 μM of compound 5 to determine at which phase apoptosis occurs in the cell cycle for 24 h (Figure 3 and Table 4).
Effect of compound 5 on cell cycle distribution was analyzed using following the method described in [17, 29]. Briefly, to determine the influence of compound 5 on the cell cycle progression of HepG2 cells, flow cytometry analysis was performed using Propidium Iodide flow cytometry kit/BD (ab139418). First, the cells were cultured at a density of 2 × 10^5/well and incubated for 24 h. Afterwards, the cells were treated with compound 5 for 24 h. Then, the cells were fixed using 70% ethanol for 12 h at 4 °C. The cells were then washed with cold PBS, incubated with 100 µL RNase A for 30 min at 37 °C, and stained with Propidium Iodide (400 µL) in the dark at room temperature for 30 min. The stained cells were identified by running Epics XLMCL™ flow cytometer equipment (Beckman Coulter, Apeldoorn, The Netherlands), and the results were interpreted using Flowing software (version 2.5.1, Turku Centre for Biotechnology, Turku, Finland).

The target in another test is VEGFR2 (Homo sapiens, UniProt P35968). In words: Kinase inhibition assay (ELISA kit).
VEGFR2, sequence (P35968 20-1356): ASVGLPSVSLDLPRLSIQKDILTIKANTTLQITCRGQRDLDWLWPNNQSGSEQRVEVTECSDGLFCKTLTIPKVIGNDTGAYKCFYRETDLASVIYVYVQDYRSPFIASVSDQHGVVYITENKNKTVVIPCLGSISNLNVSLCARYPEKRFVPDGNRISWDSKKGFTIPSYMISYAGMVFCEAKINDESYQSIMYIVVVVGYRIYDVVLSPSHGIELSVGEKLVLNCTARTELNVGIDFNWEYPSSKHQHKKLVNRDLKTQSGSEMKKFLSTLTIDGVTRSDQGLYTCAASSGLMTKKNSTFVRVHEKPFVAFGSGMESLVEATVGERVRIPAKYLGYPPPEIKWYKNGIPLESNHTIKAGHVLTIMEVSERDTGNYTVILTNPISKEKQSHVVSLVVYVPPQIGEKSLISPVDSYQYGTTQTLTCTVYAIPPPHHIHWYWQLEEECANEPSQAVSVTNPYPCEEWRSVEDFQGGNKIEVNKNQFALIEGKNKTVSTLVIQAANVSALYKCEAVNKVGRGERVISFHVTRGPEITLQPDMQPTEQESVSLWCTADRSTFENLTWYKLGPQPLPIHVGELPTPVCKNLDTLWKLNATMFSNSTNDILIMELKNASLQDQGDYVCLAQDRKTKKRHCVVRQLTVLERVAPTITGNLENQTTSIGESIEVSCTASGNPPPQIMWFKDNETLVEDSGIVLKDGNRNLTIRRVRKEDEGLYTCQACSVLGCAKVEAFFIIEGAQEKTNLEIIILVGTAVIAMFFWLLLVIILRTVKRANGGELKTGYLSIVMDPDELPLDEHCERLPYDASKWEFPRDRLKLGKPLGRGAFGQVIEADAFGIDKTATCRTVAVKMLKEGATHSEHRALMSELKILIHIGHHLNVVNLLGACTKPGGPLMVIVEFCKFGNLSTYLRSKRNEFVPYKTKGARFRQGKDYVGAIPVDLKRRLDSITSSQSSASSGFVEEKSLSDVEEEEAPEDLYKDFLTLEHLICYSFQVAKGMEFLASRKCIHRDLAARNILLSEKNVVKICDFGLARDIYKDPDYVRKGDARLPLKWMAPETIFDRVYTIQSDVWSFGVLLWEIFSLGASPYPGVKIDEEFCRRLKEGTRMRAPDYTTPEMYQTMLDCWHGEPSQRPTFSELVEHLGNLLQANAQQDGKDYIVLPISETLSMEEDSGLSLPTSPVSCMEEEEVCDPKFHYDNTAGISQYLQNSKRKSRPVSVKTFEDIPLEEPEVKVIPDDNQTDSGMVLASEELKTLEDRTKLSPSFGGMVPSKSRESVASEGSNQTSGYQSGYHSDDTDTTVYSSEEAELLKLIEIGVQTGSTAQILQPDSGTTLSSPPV
In another test the test system is BAX. In words: BAX level assay (ELISA) in HepG2. The conditions noted are these: HepG2 cells, 24 h, vs untreated control. The class given is cell-based, human. On the procedure:
(§2) The effect of compound 5 was also evaluated on caspase 3, caspase 9, BAX, and Bcl-2 protein levels in HepG2 (Table 6). […] Additionally, the level of Bcl-2 was reduced in the treated cells (0.18-fold) compared to untreated control cells.
(§3) Compound 5 effect on Caspase 3, caspase 9, BAX, and Bcl-2 levels was analyzed by following the method described in [17]. In 96-well plates, HepG2 cells were cultured and incubated for 24 h. The cells were then treated with compound 5 or 0.1% DMSO (v/v) for 24 h. Afterwards, caspase 3 and 9, BAX, and Bcl-2 levels were determined using ELISA assay kits KHO1091 (InvitrogenTM, Grand Island, NY, USA), EIA-4860 (DRU International Inc., Mountainside, NJ, USA), EIA-4487 (DRU International Inc., Mountainside, NJ, USA), and 99-0042 (InvitrogenTM, Grand Island, NY, USA), respectively, according to the manufacturers’ procedures.

The next test relates to caspase 9. In words: Caspase 9 level assay (ELISA) in HepG2. The class given is cell-based, human. The conditions noted are these: HepG2 cells, 24 h, vs untreated control. The method, then:
as §2, §3

The test system of a further test is caspase 3. The experiment in a line: Caspase 3 level assay (ELISA) in HepG2. The class given is cell-based, human. Conditions: HepG2 cells, 24 h, vs untreated control. On the procedure: as §2, §3
The next test relates to Bcl-2. The experiment in a line: Bcl-2 level assay (ELISA) in HepG2. It counts as cell-based, human. Conditions: HepG2 cells, 24 h, vs untreated control. The method, then:
as §2, §3

Another test has as its target CDK2 (Homo sapiens, UniProt P24941). The experiment in a line: Kinase inhibition assay (ELISA kit).
Test [3] relates to HepG2, MCF-7, MDA-MB-231, and HeLa cell lines. The experiment in a line: In vitro cytotoxicity MTT assay, all tested cell lines. It counts as cell-based, human. The method, then:
as §1

HER2, sequence (P04626 23-1255): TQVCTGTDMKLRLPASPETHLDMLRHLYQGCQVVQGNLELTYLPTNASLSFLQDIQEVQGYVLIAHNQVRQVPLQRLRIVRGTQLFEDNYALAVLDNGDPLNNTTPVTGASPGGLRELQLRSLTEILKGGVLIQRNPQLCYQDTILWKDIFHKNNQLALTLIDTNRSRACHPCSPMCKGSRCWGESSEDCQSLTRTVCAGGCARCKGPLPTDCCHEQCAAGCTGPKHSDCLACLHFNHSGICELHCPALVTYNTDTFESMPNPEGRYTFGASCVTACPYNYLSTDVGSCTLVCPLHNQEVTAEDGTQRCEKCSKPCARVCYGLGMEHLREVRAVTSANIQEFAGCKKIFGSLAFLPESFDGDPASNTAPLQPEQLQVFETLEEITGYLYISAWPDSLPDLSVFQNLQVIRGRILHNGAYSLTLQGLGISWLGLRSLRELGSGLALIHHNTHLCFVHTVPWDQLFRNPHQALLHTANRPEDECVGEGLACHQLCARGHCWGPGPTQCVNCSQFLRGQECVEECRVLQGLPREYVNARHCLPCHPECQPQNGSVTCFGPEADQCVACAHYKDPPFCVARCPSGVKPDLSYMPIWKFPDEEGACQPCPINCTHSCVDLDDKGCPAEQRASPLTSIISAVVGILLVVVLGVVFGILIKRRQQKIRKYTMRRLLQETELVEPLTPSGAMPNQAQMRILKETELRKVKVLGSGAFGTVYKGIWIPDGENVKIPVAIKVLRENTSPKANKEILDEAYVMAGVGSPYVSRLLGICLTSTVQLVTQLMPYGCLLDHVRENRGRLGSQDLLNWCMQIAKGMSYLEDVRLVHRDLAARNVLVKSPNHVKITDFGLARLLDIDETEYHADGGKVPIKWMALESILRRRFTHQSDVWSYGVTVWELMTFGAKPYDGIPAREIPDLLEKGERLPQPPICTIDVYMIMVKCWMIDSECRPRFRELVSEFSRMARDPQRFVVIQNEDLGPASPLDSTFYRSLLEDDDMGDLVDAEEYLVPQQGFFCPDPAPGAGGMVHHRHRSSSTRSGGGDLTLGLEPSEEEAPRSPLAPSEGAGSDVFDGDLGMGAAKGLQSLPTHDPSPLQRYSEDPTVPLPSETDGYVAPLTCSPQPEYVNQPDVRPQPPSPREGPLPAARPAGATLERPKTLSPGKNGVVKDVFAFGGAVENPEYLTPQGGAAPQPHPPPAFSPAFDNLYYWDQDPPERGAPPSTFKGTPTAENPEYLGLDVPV
Description for CDK2: (§4) In vitro kinase inhibition assays were assessed against CDK2, EGFR, HER2, and VEGFR2, as described in [17, 27, 28]. […] Afterwards, the wells were washed. Then, 100 µL of the prepared biotin antibody was placed into each well and left for 1 h at room temperature. The wells were washed again before adding 100 µL of streptavidin solution and left for 45 min at room temperature. Then, 100 µL of TMB substrate reagent was added after a third washing step, and the plates were left for 30 min at room temperature. Finally, 50 µL of the stop solution was added to each well and the color intensity was measured at 450 nm.
Description for HER2: as §4
Description for VEGFR2: as §4

As for `COc1ccc2c(c1)C(=NNC(=O)c1ccc(Nc3ncnc4[nH]ccc34)cc1)C(=O)N2` [Compound 5, 4-((7H-pyrrolo[2,3-d]pyrimidin-4-yl)amino)-N′-(5-methoxy-2-oxoindolin-3-ylidene)benzohydrazide], the IC50 came out at 103 ± 6 nM against EGFR; 81 ± 2 nM against HER2; 2.48 ± 0.1 µM with MDA-MB-231; 1.98 ± 0.1 µM with HeLa; 5.93 ± 0.3 µM with MCF-7; 6.11 ± 0.4 µM with HepG2. For the same compound, the values for the IC50 on VEGFR2 and on CDK2 were 178 ± 9 nM and 131 ± 7 nM, respectively. Moreover, the “Apoptosis Early” value with HepG2 cells [1] (24 h, Annexin V-FITC/PI) came to 13.28%. The “Apoptosis Late” value in the test with HepG2 cells [1] (24 h, Annexin V-FITC/PI) is reported as 21.16%. In the test with HepG2 cells [1] (24 h, Annexin V-FITC/PI), the Necrosis is recorded as 5.28%. The “Increase in necrotic cell death” value in the test with HepG2 cells [1] (compared to untreated cells) worked out at 4.75 fold. In addition, the “Induction of apoptosis in the early stage” value in the test with HepG2 cells [1] (compared to untreated cells) came out at 20 fold. For the same compound, the “Induction of apoptosis in the late stage” value with HepG2 cells [1] (compared to untreated cells) was 160 fold. Moreover, the “Cell Cycle Distribution %G0-G1” value in the test with HepG2 cells [2] was determined as 49.02%. The “Cell Cycle Distribution %G2/M” value with HepG2 cells [2] was 6.05%. Further, the “Cell Cycle Distribution %Pre-G1” value with HepG2 cells [2] was 39.72%. Besides, the “Cell Cycle Distribution %S” value with HepG2 cells [2] is 44.93%. Moreover, the “Cell cycle arrest phase” value in the test on HepG2 cells [2] was “arrested the cell cycle of HepG2 cells at G1 and S phases”. Moreover, the “Gene Expression Fold Change Bax” value is 6.13 fold in the test on BAX and 6 fold with BAX (listed as compound 5). The “Gene Expression Fold Change Caspase 9” value turned out to be 4.853 fold in the test with caspase 9 and 5 fold in the test on caspase 9 (listed as compound 5). Further, the “Gene Expression Fold Change Caspase 3” value amounted to 7.984 fold with caspase 3 and 8 fold in the test with caspase 3 (listed as compound 5). Further, the “Gene Expression Fold Change Bcl-2” value is recorded as 0.184 fold in the test with Bcl-2 and 0.18 fold with Bcl-2 (listed as compound 5).
`COc1cccc2c1C(=O)c1c(O)c3c(c(O)c1C2=O)C[C@@](O)(C(=O)CO)C[C@@H]3O[C@H]1C[C@H](N)[C@H](O)[C@H](C)O1` [DOXORUBICIN, doxorubicin, reference compound] had an IC50 in the test with HepG2 of 4.5 ± 0.2 µM.
Consider `CCN(CC)CCNC(=O)c1c(C)[nH]c(/C=C2\C(=O)Nc3ccc(F)cc32)c1C` [Sunitinib, reference compound], for which the IC50 worked out at 8.41 ± 0.7 µM with MDA-MB-231, 7.48 ± 0.6 µM in the test with HeLa, 5.19 ± 0.4 µM with MCF-7 and 6.82 ± 0.5 µM in the test on HepG2.
For `Cc1ccc2c(c1)C(=NNC(=O)c1ccc(Nc3ncnc4[nH]ccc34)cc1)C(=O)N2` [Compound 4, 4-((7H-pyrrolo[2,3-d]pyrimidin-4-yl)amino)-N′-(5-methyl-2-oxoindolin-3-ylidene)benzohydrazide], the IC50 in the test on MDA-MB-231 amounted to 73.2 ± 3.3 µM; in the test with HeLa, 75.4 ± 3.5 µM; in the test on MCF-7, 80.2 ± 4.2 µM; in the test on HepG2, 92.7 ± 4.5 µM.
For the compound `O=C1Nc2ccc(F)cc2C1=NNC(=O)c1ccc(Nc2ncnc3[nH]ccc23)cc1` [Compound 3, 4-((7H-pyrrolo[2,3-d]pyrimidin-4-yl)amino)-N′-(5-fluoro-2-oxoindolin-3-ylidene)benzohydrazide], the IC50 in the test on MDA-MB-231 came out at 42.9 ± 2.6 µM; in the test with HeLa, 39.1 ± 2.4 µM; in the test on MCF-7, 63.7 ± 3.4 µM; with HepG2 it was 59.3 ± 3.3 µM.
For `O=C1Nc2ccccc2C1=NNC(=O)c1ccc(Nc2ncnc3[nH]ccc23)cc1` [Compound 1, 4-((7H-pyrrolo[2,3-d]pyrimidin-4-yl)amino)-N′-(2-oxoindolin-3-ylidene)benzohydrazide], the 50% inhibitory concentration (IC50) with MDA-MB-231 worked out at 16 ± 1.3 µM; in the test on HeLa, 12.4 ± 0.9 µM; with MCF-7, 18.5 ± 1.5 µM; in the test with HepG2, 25.8 ± 1.9 µM. For the same compound, the “Antiproliferative activity (in words)” value in test [3] was “moderate antiproliferative activity”.
As to `O=C1Nc2ccc(Cl)cc2C1=NNC(=O)c1ccc(Nc2ncnc3[nH]ccc23)cc1` [Compound 2, 4-((7H-pyrrolo[2,3-d]pyrimidin-4-yl)amino)-N′-(5-chloro-2-oxoindolin-3-ylidene)benzohydrazide], the IC50 in the test on MDA-MB-231 was 51.3 ± 2.9 µM; in the test on HeLa it was 45.4 ± 2.6 µM; in the test on MCF-7 it was 72.5 ± 3.7 µM; with HepG2, 67.4 ± 3.6 µM.
